Measured values: ChEMBL document CHEMBL4616697, “Discovery of Adamantane Carboxamides as Ebola Virus Cell Entry and Glycoprotein Inhibitors” (ACS Med Chem Lett, 2020)
Activity calls are given as the source filed them. The calls are words filed in the database; no cut-off is given here.

Legend:
[1] = Inhibition of glycoprotein in VSV pseudotyped Ebolavirus infected in African green monkey Vero cells assessed as reduction in virus entry incubated for 24 hrs by luciferase reporter gene assay; format: cell-based
[2] = Kinetic aqueous solubility of compound in PBS at pH 6.4 to 7.5 measured after 2 hrs by spectrophotometry analysis; format: physicochemical; settings: read-out: Kinetic_solubility
[3] = system: Vero; experiment: Inhibition of glycoprotein in VSV pseudotyped Ebolavirus infected in African green monkey Vero cells assessed as reduction in virus entry at 5 uM incubated for 24 hrs by luciferase reporter gene assay relative to control; format: cell-based
[4] = system: Vero; experiment: Inhibition of glycoprotein in pseudotyped Vesicular stomatitis virus infected in African green monkey Vero cells assessed as reduction in virus entry at 5 uM incubated for 24 hrs by luciferase reporter gene assay; format: cell-based
[5] = Metabolic stability in human liver microsomes assessed as parent compound remaining at 1 uM pretreated for 30 mins followed by NADPH addition and measured after 60 mins by LC-MS/MS analysis; format: ADME, Microsome; settings: microsomes, 1 h, 1 µM
[6] = Metabolic stability in mouse liver microsomes assessed as parent compound remaining at 1 uM pretreated for 30 mins followed by NADPH addition and measured after 60 mins by LC-MS/MS analysis; format: ADME, Microsome; settings: read-out: Stability
[7] = Metabolic stability in Cynomolgus monkey liver microsomes assessed as parent compound remaining at 1 uM pretreated for 30 mins followed by NADPH addition and measured after 60 mins by LC-MS/MS analysis; format: ADME, Macaca fascicularis, Microsome; settings: read-out: Stability
[8] = Aqueous solubility of compound in PBS at pH 7.4 measured after 2 hrs by spectrophotometry analysis; format: physicochemical
[9] = system: Ebolavirus; experiment: Antiviral activity against wild type Ebolavirus infected in African green monkey Vero E6 cells assessed as inhibition of viral entry compound treated with primary viral infected cells for 60 mins and after 3 days post-infection measured following 10 days of compound incubation with fresh cells infected with primary culture supernatants by virus yield reduction assay; format: functional; settings: Orthoebolavirus, Vero C1008
[10] = Cytotoxicity against African green monkey Vero E6 cells assessed as reduction in cell viability incubated for 10 days by neutral red dye based spectrophotometry analysis; design: species or system Vero C1008; settings: chlorocebus sabaeus
[11] = Selectivity index, ratio of CC50 for African green monkey Vero E6 cells assessed as reduction in cell viability incubated for 10 days by neutral red dye based spectrophotometry analysis to EC90 for wild type Ebolavirus infected in African green monkey Vero E6 cells assessed as reduction in viral replication by virus yield reduction assay; format: toxicity, Vero C1008; settings: read-out: Selectivity Index

| Compound | EC50 ([1]; Orthoebolavirus, Vero, 24 h) [nM] | solubility kinetic at 2 h [2] [µM] | also measured |
| --- | --- | --- | --- |
| O=C(NC1CCN(Cc2ccccc2)CC1)C12CC3CC(CC(C3)C1)C2 | 3900 | > 100 | inhibition [3]: > 50%; inhibition [4]: inactive |
| O=C(N1CCc2ccccc2C1)C12CC3CC(C1)CC(c1ccccc1)(C3)C2 | 2300 | > 100 |  |
| O=C(NC1CCNCC1)C12CC3CC1CC(c1ccccc1)(C3)C2 (centres undefined) | 330 | > 100 |  |
| c1ccc(C23CC4CC(CC(CNC5CCNCC5)(C4)C2)C3)cc1 | 470 | > 100 |  |
| O=C(NC1CCNCC1)C12CC3CC(C1)CC(c1ccc(Cl)cc1)(C3)C2 | 190 | > 100 |  |
| C[C@@]12C[C@H]3C[C@@](C(=O)NC4CCNCC4)(C1)C[C@](c1ccccc1)(C3)C2 |  |  | EC50 ([1]; vero): 240 nM |
| C[C@]12C[C@@H]3C[C@](C(=O)NC4CCNCC4)(C1)C[C@@](c1ccccc1)(C3)C2 |  |  | EC50 ([1]; vero): 28 nM; Stability [5]: 81%; remaining at 1 h, 1 µM [6]: 86%; remaining at 1 h, 1 µM [7]: 83%; solubility at 2 h [8]: > 20 mg/mL; EC90 [9]: 2100 nM; CC50 at 240 h [10]: 71000 nM; selectivity ratio at 240 h [11]: 34 |
| O=C(N1CCNCC1)C12CC3CC(C1)CC(c1ccccc1)(C3)C2 | 260 | > 100 |  |
| COc1ccc(C23CC4CC(CC(C(=O)NC5CCNCC5)(C4)C2)C3)cc1 | 380 | > 100 |  |
| CC12CC3(C)CC(C(=O)NC4CCNCC4)(C1)CC(c1ccccc1)(C2)C3 | 320 | > 100 |  |
| O=C(NC1CCN(Cc2ccccc2)CC1)C12CC3CC(C1)CC(c1ccccc1)(C3)C2 | 380 | > 100 |  |
| O=C(NC1CCNCC1)C12CC3CC(C1)CC(c1ccc(F)cc1)(C3)C2 | 310 | > 100 |  |
| O=C(NC12CC3CC(C1)CC(c1ccccc1)(C3)C2)C1CCNCC1 | > 1000 | > 100 |  |
| O=C(NC1CCNCC1)C1C2CC3CC1CC(c1ccccc1)(C3)C2 (centres undefined) | 180 | > 100 |  |
| CN1CCC(N(C)C(=O)C23CC4CC(C2)CC(c2ccccc2)(C4)C3)CC1 | 280 | > 100 |  |
| O=C(NC1CCNCC1)C12CC3CC(C1)CC(c1ccc(O)cc1)(C3)C2 | 1700 | > 100 |  |
| CN1CCC(NC(=O)C23CC4CC(C2)CC(c2ccccc2)(C4)C3)CC1 | 160 | > 100 |  |
| NC1CCN(C(=O)C23CC4CC(C2)CC(c2ccccc2)(C4)C3)CC1 | 120 | > 100 |  |
| O=C(CC12CC3CC(C1)CC(c1ccccc1)(C3)C2)NC1CCNCC1 | 490 | > 100 |  |
| O=C(NC1CCNCC1)NC12CC3CC(C1)CC(c1ccccc1)(C3)C2 | > 1000 | > 100 |  |
| O=C(NC1CCNCC1)C12CC3CC(C1)CC(c1ccc([N+](=O)[O-])cc1)(C3)C2 | > 3000 | > 100 |  |
